Measurements: patent US10654816B2, “Compounds and compositions for treating conditions associated with NLRP activity” (NOVARTIS INFLAMMASOME RESEARCH, INC., priority 2017, dated 2020)

System: IL-1β production in PMA-differentiated THP-1 cells
Assay: IL-1β production in PMA-differentiated THP-1 cells stimulated with gramicidin (hTHP-1 assay, HTRF readout; Procedures 1-3)
Type: cell-based, human
Conditions: Homo sapiens, THP-1, hTHP-1 assay containing 2% fetal bovine serum; average; class symbols; read-out: hTHP-1 IC50 (Average IC50 of compounds in hTHP-1 assay)
In short: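 PMA-differentiated (20 ng/ml, 16-18 h) THP-1 cells in RPMI with 2% FBS, 50,000 cells/well, preincubated 1 h with compound (final 0.0017-100 μM, 0.37% DMSO), then stimulated with 5 μM gramicidin for 2 h. IL-1β in cell-free supernatant measured by HTRF (620/668 nm).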

| IC50 | Structure (SMILES) |
| --- | --- |
| 200 to 1000 nM | CC(C)(O)c1ccc(S(N)(=O)=NC(=O)Nc2c3c(cc4c2CCC4)CCC3)cn1 (stereo not drawn) [Example 260, N′-((1,2,3,5,6,7-hexahydro-s-indacen-4-yl)carbamoyl)-6-(2-hydroxypropan-2-yl)pyridine-3-sulfonimidamide] |
| 40 to 200 nM | Cc1oc(S(N)(=O)=NC(=O)Nc2c(C(C)C)cc(C#N)c(F)c2C(C)C)cc1C(C)(C)O (stereo not drawn) [Example 33, N′-(4-cyano-3-fluoro-2,6-diisopropylphenylcarbamoyl)-4-(2-hydroxypropan-2-yl)-5-methylfuran-2-sulfonimidamide] |
| 1000 to 5000 nM | CC(C)c1cc(F)cc(C(C)C)c1NC(=O)N=S(N)(=O)c1ccc(CN(C)C)cc1 (single isomer, unassigned) [Example 132, (S)- or (R)-4-((dimethylamino)-methyl)-N′-(4-fluoro-2,6-diisopropylphenylcarbamoyl)-benzenesulfonimidamide] |
| 1000 to 5000 nM | CC(C)c1cc(F)cc(C(C)C)c1NC(=O)N=S(N)(=O)c1cccc(C(C)(C)O)c1 (stereo not drawn) [Example 22, N′-(4-fluoro-2,6-diisopropylphenylcarbamoyl)-3-(2-hydroxypropan-2-yl)benzenesulfonimidamide] |
| 1000 to 5000 nM | CC(C)c1ccc(S(N)(=O)=NC(=O)Nc2c3c(cc4c2CCC4)CCC3)cn1 (single isomer, unassigned) [Example 402, (S) or (R)-N′-((1,2,3,5,6,7-hexahydro-s-indacen-4-yl)carbamoyl)-6-isopropylpyridine-3-sulfonimidamide] |
| 1000 to 5000 nM | CN(Cc1ccc(S(N)(=O)=NC(=O)Nc2c3c(cc4c2CCC4)CCC3)cc1)CC(F)F (stereo not drawn) [Example 241, 4-(((2,2-Difluoroethyl)(methyl)amino)methyl)-N′-(1,2,3,5,6,7-hexahydro-s-indacen-4-ylcarbamoyl)benzenesulfonimidamide] |
| 1000 to 5000 nM | NS(=O)(=NC(=O)Nc1c2c(cc3c1CCC3)CCC2)c1ccc(CN2CCOCC2)cc1 (stereo not drawn) [Example 234, N′-(1,2,3,5,6,7-hexahydro-s-indacen-4-ylcarbamoyl)-4-(morpholino-methyl)benzenesulfonimidamide] |
| 1000 to 5000 nM | NCc1ccc(S(N)(=O)=NC(=O)Nc2c3c(cc4c2CCC4)CCC3)cc1 (stereo not drawn) [Example 243, 4-(Aminomethyl)-N′-(1,2,3,5,6,7-hexahydro-s-indacen-4-ylcarbamoyl)benzenesulfonimidamide] |
| 1000 to 5000 nM | COCCN(C)Cc1ccc(S(N)(=O)=NC(=O)Nc2c3c(cc4c2CCC4)CCC3)cc1 (stereo not drawn) [Example 232, N′-(1,2,3,5,6,7-hexahydro-s-indacen-4-ylcarbamoyl)-4-(((2-methoxyethyl)(methyl)amino)meth-yl)benzenesulfonimidamide] |
| 1000 to 5000 nM | CN1CCc2cc(S(N)(=O)=NC(=O)Nc3c4c(cc5c3CCC5)CCC4)ccc2C1 (single isomer, unassigned) [Example 395, (R) or (S)-N′-((1,2,3,5,6,7-hexahydro-s-indacen-4-yl)carbamoyl)-2-methyl-1,2,3,4-tetrahydroisoquinoline-6-sulfonimidamide] |
| 40 to 200 nM | Cc1sc(S(N)(=O)=NC(=O)Nc2c3c(cc4c2CCC4)CCC3)cc1C(C)(C)O (stereo not drawn) [Example 12, N′-(1,2,3,5,6,7-hexahydro-s-indacen-4-ylcarbamoyl)-4-(2-hydroxypropan-2-yl)-5-methylthiophene-2-sulfonimidamide] |
| 200 to 1000 nM | Cc1oc(S(N)(=O)=NC(=O)Nc2c(C(C)C)cncc2C(C)C)cc1C(C)(C)O (stereo not drawn) [Example 222, N′-((3,5-diisopropylpyridin-4-yl)carbamoyl)-4-(2-hydroxypropan-2-yl)-5-methylfuran-2-sulfonimidamide] |
| 5000 to 30000 nM | CN(C)S(=O)(=NC(=O)Nc1c2c(cc3c1CCC3)CCC2)c1cc(C(C)(C)O)cs1 (single isomer, unassigned) [Example 357, (R) or (S)-N′-((1,2,3,5,6,7-hexahydro-s-indacen-4-yl)carbamoyl)-4-(2-hydroxypropan-2-yl)-N,N-dimethylthiophene-2-sulfonimidamide] |
| 1000 to 5000 nM | Cc1cc(C(C)(C)O)ccc1S(N)(=O)=NC(=O)Nc1c2c(cc3c1CCC3)CCC2 (stereo not drawn) [Example 19, N′-(1,2,3,5,6,7-hexahydro-s-indacen-4-ylcarbamoyl)-4-(2-hydroxypropan-2-yl)-2-methylbenzenesulfonimidamide] |

Same assay, conditions: Homo sapiens, THP-1, hTHP-1 assay containing 2% fetal bovine serum; average; given as bound; read-out: hTHP-1 IC50 (Average IC50 of compounds in hTHP-1 assay)

| IC50 | Structure (SMILES) |
| --- | --- |
| > 30000 nM | CC(C)Cc1ccc(S(N)(=O)=NC(=O)Nc2c3c(cc4c2CCC4)CCC3)cc1 (stereo not drawn) [Example 277, N′-(1,2,3,5,6,7-hexahydro-s-indacen-4-ylcarbamoyl)-4-isobutylbenzenesulfonimidamide] |
| > 30000 nM | Cc1nn(C)cc1S(N)(=O)=NC(=O)Nc1c(C(C)C)cc(F)cc1C(C)C (stereo not drawn) [Example 209, N′-((4-fluoro-2,6-diisopropylphenyl)carbamoyl)-1,3-dimethyl-1H-pyrazole-4-sulfonimidamide] |
| > 30000 nM | CNS(=O)(=NC(=O)Nc1c2c(cc3c1CCC3)CCC2)c1ccc(CN(C)C)cc1 (single isomer, unassigned) [Example 383, (R) or (S)-4-((dimethylamino)methyl)-N′-((1,2,3,5,6,7-hexahydro-s-indacen-4-yl)carbamoyl)-N-methylbenzene-sulfonimidamide] |
| > 30000 nM | CC(C)c1cc(-c2ccccc2CO)cc(C(C)C)c1NC(=O)N=S(N)(=O)c1ccc(CN(C)C)cc1 (stereo not drawn) [Compound 249] |

Same assay, conditions: Homo sapiens, THP-1, hTHP-1 assay containing 2% fetal bovine serum; average; numeric bound printed without unit; read-out: hTHP-1 IC50 (Average IC50 of compounds in hTHP-1 assay)

| IC50 | Structure (SMILES) |
| --- | --- |
| > 5590 nM | CC(C)(O)c1ccc(F)c(S(N)(=O)=NC(=O)Nc2c3c(c(F)c4c2CCC4)CCC3)c1 (single isomer, unassigned) [Example 169, (S)- or (R)-2-fluoro-N′-((8-fluoro-1,2,3,5,6,7-hexahydro-s-indacen-4-yl)carbamoyl)-5-(2-hydroxypropan-2-yl)benzenesulfonimidamide] |
